Reference: ChEMBL document CHEMBL1201861, “Genomics of Drug Sensitity in Cancer screening data, Wellcome Trust Sanger Institute”

Legend:
CP50-MEL-B = experiment: cells; assay type: functional, cell-based; conditions: Homo sapiens;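 note: growth inhibition of the human cell line, measured with a cell viability read-out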
Description: SANGER: Inhibition of human CP50-MEL-B cell growth in a cell viability assay.

DMS-79 = experiment: cells; assay type: functional, cell-based, Homo sapiens; conditions: Homo sapiens, DMS-79
Description: SANGER: Inhibition of human DMS-79 cell growth in a cell viability assay.

EC-GI-10 = experiment: cells; assay type: functional, cell-based, Homo sapiens; conditions: Homo sapiens, EC-GI-10
Description: SANGER: Inhibition of human EC-GI-10 cell growth in a cell viability assay.

EFO-27 = experiment: cells; assay type: functional, cell-based; conditions: Homo sapiens;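 note: growth inhibition of EFO-27 cells, read out with a cell viability assay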
Description: SANGER: Inhibition of human EFO-27 cell growth in a cell viability assay.

FTC-133 = experiment: cells; assay type: functional, cell-based; conditions: Homo sapiens
G-401 = experiment: cells; assay type: functional, cell-based; conditions: Homo sapiens
Description: SANGER: Inhibition of human G-401 cell growth in a cell viability assay.

HCC1806 = experiment: cells; assay type: functional, cell-based; conditions: Homo sapiens;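 note: growth inhibition of the cancer cell line, determined with a cell viability assay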
Description: SANGER: Inhibition of human HCC1806 cell growth in a cell viability assay.

HCC 2998 = experiment: cells; assay type: functional, cell-based; conditions: Homo sapiens;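 note: growth inhibition of human HCC2998 cells, measured with a cell viability read-out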
Description: SANGER: Inhibition of human HCC2998 cell growth in a cell viability assay.

HCC70 = experiment: cells; assay type: functional, cell-based; conditions: Homo sapiens;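 note: cell viability assay measuring how strongly the compound suppresses proliferation of HCC70 cells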
Description: SANGER: Inhibition of human HCC70 cell growth in a cell viability assay.

HT-1080 = experiment: cells; assay type: functional, cell-based; conditions: Homo sapiens
Description: SANGER: Inhibition of human HT-1080 cell growth in a cell viability assay.

HT-3 = experiment: cells; assay type: functional, cell-based; conditions: Homo sapiens;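 note: growth inhibition measured with a cell viability readout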
Description: SANGER: Inhibition of human HT-3 cell growth in a cell viability assay.

HT55 = experiment: cells; assay type: functional, cell-based; conditions: Homo sapiens;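 note: cell viability readout measuring growth inhibition of human HT55 cells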
Description: SANGER: Inhibition of human HT55 cell growth in a cell viability assay.

KP-N-YN = experiment: cells; assay type: functional, cell-based; conditions: Homo sapiens;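 note: growth inhibition of KP-N-YN cells, read out with a cell viability assay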
Description: SANGER: Inhibition of human KP-N-YN cell growth in a cell viability assay.

KYSE-70 cell line = experiment: cells; assay type: functional, cell-based; conditions: Homo sapiens;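 note: cell viability assay read-out, with IC50 expressing suppression of KYSE-70 cell growth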
Description: SANGER: Inhibition of human KYSE-70 cell growth in a cell viability assay.

M059J = experiment: cells; assay type: functional, cell-based; conditions: Homo sapiens;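 note: growth inhibition of M059J cells, read out with a cell viability assay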
Description: SANGER: Inhibition of human M059J cell growth in a cell viability assay.

MDA-MB-415 = experiment: cells; assay type: functional, cell-based; conditions: Homo sapiens
MG-63 = experiment: cells; assay type: functional, cell-based; conditions: Homo sapiens;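 note: growth inhibition of human MG-63 cells, read out with a cell viability assay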
Description: SANGER: Inhibition of human MG-63 cell growth in a cell viability assay.

MKN-45 = experiment: cells; assay type: functional, cell-based; conditions: Homo sapiens;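 note: growth inhibition of human MKN-45 cells, measured with a cell viability assay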
Description: SANGER: Inhibition of human MKN45 cell growth in a cell viability assay.

NCI-H1623 = experiment: cells; assay type: functional, cell-based; conditions: Homo sapiens;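 note: cell viability assay used as the read-out for growth inhibition of NCI-H1623 cells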
Description: SANGER: Inhibition of human NCI-H1623 cell growth in a cell viability assay.

NCI-H2052 = experiment: cells; assay type: functional, cell-based; conditions: Homo sapiens;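 note: growth inhibition of NCI-H2052 cells, read out with a cell viability assay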
Description: SANGER: Inhibition of human NCI-H2052 cell growth in a cell viability assay.

NCI-H2452 = experiment: cells; assay type: functional, cell-based; conditions: Homo sapiens;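 note: growth inhibition of NCI-H2452 cells, read out with a cell viability assay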
Description: SANGER: Inhibition of human NCI-H2452 cell growth in a cell viability assay.

NY = experiment: cells; assay type: functional, cell-based; conditions: Homo sapiens
Description: SANGER: Inhibition of human NY cell growth in a cell viability assay.

PC-3 = experiment: cells; assay type: functional, cell-based; conditions: Homo sapiens;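 note: cell viability assay measuring growth inhibition of PC-3 cells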
Description: SANGER: Inhibition of human PC-3 cell growth in a cell viability assay.

RMG-I = experiment: cells; assay type: functional, cell-based; conditions: Homo sapiens;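 note: growth inhibition of human RMG-I cells, read out with a cell viability assay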
Description: SANGER: Inhibition of human RMG-I cell growth in a cell viability assay.

RPMI-7951 = experiment: cells; assay type: functional, cell-based; conditions: Homo sapiens
Description: SANGER: Inhibition of human RPMI-7951 cell growth in a cell viability assay.

SBC-5 = experiment: cells; assay type: functional, cell-based; conditions: Homo sapiens;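 note: cell viability assay read-out, IC50 is the concentration that inhibits growth of the cells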
Description: SANGER: Inhibition of human SBC-5 cell growth in a cell viability assay.

SK-MEL-24 = experiment: cells; assay type: functional, cell-based; conditions: Homo sapiens;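 note: growth inhibition read out by a cell viability assay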
Description: SANGER: Inhibition of human SK-MEL-24 cell growth in a cell viability assay.

SW1417 = experiment: cells; assay type: functional, cell-based; conditions: Homo sapiens;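 note: growth inhibition of human SW1417 cells, read out with a cell viability assay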
Description: SANGER: Inhibition of human SW1417 cell growth in a cell viability assay.

SW48 = experiment: cells; assay type: functional, cell-based; conditions: Homo sapiens;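 note: growth inhibition of SW48 cells, read out with a cell viability assay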
Description: SANGER: Inhibition of human SW48 cell growth in a cell viability assay.

SiHa = experiment: cells; assay type: functional, cell-based; conditions: Homo sapiens;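 note: Viability-based readout of growth inhibition in SiHa cells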
Description: SANGER: Inhibition of human SiHa cell growth in a cell viability assay.

T-24 = experiment: cells; assay type: functional, cell-based; conditions: Homo sapiens;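 note: growth inhibition of T-24 cells, read out with a cell viability assay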
Description: SANGER: Inhibition of human T-24 cell growth in a cell viability assay.

23132-87 = experiment: cells; assay type: functional, cell-based; conditions: Homo sapiens
Description: SANGER: Inhibition of human 23132-87 cell growth in a cell viability assay.

A 172 = experiment: cells; assay type: functional, cell-based; conditions: Homo sapiens;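 note: growth inhibition of A172 cells, measured with a cell viability readout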
Description: SANGER: Inhibition of human A172 cell growth in a cell viability assay.

A-431 = experiment: cells; assay type: functional, cell-based; conditions: Homo sapiens;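 note: growth inhibition of A-431 cells, determined with a cell viability read-out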
Description: SANGER: Inhibition of human A431 cell growth in a cell viability assay.

AGS = experiment: cells; assay type: functional, cell-based; conditions: Homo sapiens;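 note: growth inhibition of AGS cells, determined with a cell viability assay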
Description: SANGER: Inhibition of human AGS cell growth in a cell viability assay.

ASPC1 = experiment: cells; assay type: functional, cell-based; conditions: Homo sapiens;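 note: growth inhibition of AsPC-1 cells, read out with a cell viability assay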
Description: SANGER: Inhibition of human AsPC-1 cell growth in a cell viability assay.

CAL-12T = experiment: cells; assay type: functional, cell-based; conditions: Homo sapiens;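 note: growth inhibition of human CAL-12T cells, read out with a cell viability assay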
Description: SANGER: Inhibition of human CAL-12T cell growth in a cell viability assay.

CAL-62 = experiment: cells; assay type: functional, cell-based; conditions: Homo sapiens;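 note: growth inhibition of CAL-62 cells, read out with a cell viability assay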
Description: SANGER: Inhibition of human CAL-62 cell growth in a cell viability assay.

TYK-nu = experiment: cells; assay type: functional, cell-based; conditions: Homo sapiens;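 note: growth inhibition of human TYK-nu cells, read out by a cell viability assay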
Description: SANGER: Inhibition of human TYK-nu cell growth in a cell viability assay.

U-251 = experiment: cells; assay type: functional, cell-based; conditions: Homo sapiens;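 note: growth inhibition of human U-251 cells, read out through a cell viability assay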
Description: SANGER: Inhibition of human U251 cell growth in a cell viability assay.

DMS-153 = experiment: cells; assay type: functional, cell-based, Homo sapiens; conditions: Homo sapiens, DMS-153
Description: SANGER: Inhibition of human DMS-153 cell growth in a cell viability assay.

Daudi = experiment: cells; assay type: functional, cell-based, Homo sapiens; conditions: Homo sapiens, Daudi;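 note: growth inhibition of Daudi cells, read out by a viability assay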
Description: SANGER: Inhibition of human Daudi cell growth in a cell viability assay.

IM-9 = experiment: SANGER: Inhibition of human IM-9 cell growth in a cell viability assay.; assay type: functional, cell-based; conditions: Homo sapiens, IM-9
L-540 = experiment: cells; assay type: functional, cell-based, Homo sapiens; conditions: Homo sapiens, L-540;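 note: growth inhibition of the human L-540 cell line, read out with a viability assay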
Description: SANGER: Inhibition of human L-540 cell growth in a cell viability assay.

LP-1 = experiment: cells; assay type: functional, cell-based, Homo sapiens; conditions: Homo sapiens, LP-1;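 note: growth inhibition of human LP-1 cells, with the read-out taken from a cell viability assay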
Description: SANGER: Inhibition of human LP-1 cell growth in a cell viability assay.

NCI-H1436 = experiment: cells; assay type: functional, cell-based, Homo sapiens; conditions: Homo sapiens, NCI-H1436;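 note: growth suppression of human NCI-H1436 cells, determined with a cell viability readout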
Description: SANGER: Inhibition of human NCI-H1436 cell growth in a cell viability assay.

NCI-H187 = experiment: cells; assay type: functional, cell-based, Homo sapiens; conditions: Homo sapiens, NCI-H187;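 note: growth inhibition of NCI-H187 cells, read out as cell viability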
Description: SANGER: Inhibition of human NCI-H187 cell growth in a cell viability assay.

NCI-H345 = experiment: cells; assay type: functional, cell-based, Homo sapiens; conditions: Homo sapiens, NCI-H345;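 note: growth inhibition of NCI-H345 cells measured with a cell viability assay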
Description: SANGER: Inhibition of human NCI-H345 cell growth in a cell viability assay.

SNU-16 = experiment: cells; assay type: functional, cell-based, Homo sapiens; conditions: Homo sapiens, SNU-16;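 note: growth inhibition of human SNU-16 cells, determined with a cell viability readout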
Description: SANGER: Inhibition of human NCI-SNU-16 cell growth in a cell viability assay.

OPM-2 = experiment: cells; assay type: functional, cell-based, Homo sapiens; conditions: Homo sapiens, OPM-2;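 note: growth of OPM-2 cells measured with a viability assay, IC50 for suppression of proliferation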
Description: SANGER: Inhibition of human OPM-2 cell growth in a cell viability assay.

REH = experiment: cells; assay type: functional, cell-based, Homo sapiens; conditions: Homo sapiens, REH;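 note: growth inhibition of REH cells determined with a cell viability read-out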
Description: SANGER: Inhibition of human REH cell growth in a cell viability assay.

RPMI 8402 = experiment: SANGER: Inhibition of human RPMI-8402 cell growth in a cell viability assay.; assay type: functional, cell-based; conditions: Homo sapiens, RPMI 8402
SIG-M5 = experiment: cells; assay type: functional, cell-based, Homo sapiens; conditions: Homo sapiens, SIG-M5;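 note: cell viability assay read-out, measuring how strongly growth of cultured human SIG-M5 cells is inhibited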
Description: SANGER: Inhibition of human SIG-M5 cell growth in a cell viability assay.

SK-MM-2 = experiment: cells; assay type: functional, cell-based, Homo sapiens; conditions: Homo sapiens, SK-MM-2;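 note: growth inhibition of human SK-MM-2 cells, read out with a cell viability assay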
Description: SANGER: Inhibition of human SK-MM-2 cell growth in a cell viability assay.

SNU-C1 = experiment: cells; assay type: functional, cell-based, Homo sapiens; conditions: Homo sapiens, SNU-C1;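 note: growth inhibition of SNU-C1 human cells, read out by a cell viability assay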
Description: SANGER: Inhibition of human SNU-C1 cell growth in a cell viability assay.

SUP-T1 = experiment: cells; assay type: functional, cell-based, Homo sapiens; conditions: Homo sapiens, SUP-T1;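 note: growth inhibition of human SUP-T1 cells, read out as cell viability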
Description: SANGER: Inhibition of human SUP-T1 cell growth in a cell viability assay.

TALL-1 = experiment: cells; assay type: functional, cell-based, Homo sapiens; conditions: Homo sapiens, TALL-1;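 note: growth inhibition of cultured human TALL-1 cells, read out by a cell viability assay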
Description: SANGER: Inhibition of human TALL-1 cell growth in a cell viability assay.

BC-3 = experiment: cells; assay type: functional, cell-based, Homo sapiens; conditions: Homo sapiens, BC-3;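 note: cell viability assay measuring growth inhibition of human BC-3 cells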
Description: SANGER: Inhibition of human BC-3 cell growth in a cell viability assay.

In the case of `NC(=O)Nc1cc(-c2cccc(F)c2)sc1C(=O)N[C@H]1CCCNC1` [AZD-7762], the IC50 (CP50-MEL-B) is reported as > 2000 nM, the IC50 (DMS-79) is reported as > 2000 nM and the IC50 (EC-GI-10) is reported as 1780 nM. For the same compound, the IC50 (EFO-27) was 430 nM, the IC50 (FTC-133) was 303 nM and the IC50 (G-401) was > 2000 nM. The IC50 (HCC1806) was 40.2 nM, the IC50 (HCC 2998) was 317 nM and the IC50 (HCC70) was 307 nM. The IC50 (HT-1080) was 493 nM, the IC50 (HT-3) was 490 nM and the IC50 (HT55) was 1610 nM. The IC50 (KP-N-YN) was 349 nM, the IC50 (KYSE-70 cell line) was > 2000 nM and the IC50 (M059J) was 1070 nM. The IC50 (MDA-MB-415) was > 2000 nM, the IC50 (MG-63) was > 2000 nM and the IC50 (MKN-45) was 280 nM. For the same compound, the IC50 (NCI-H1623) was > 2000 nM, the IC50 (NCI-H2052) was > 2000 nM and the IC50 (NCI-H2452) was 936 nM. For the same compound, the IC50 (NY) was > 2000 nM, the IC50 (PC-3) was > 2000 nM and the IC50 (RMG-I) was 1910 nM. The IC50 (RPMI-7951) was 231 nM, the IC50 (SBC-5) was 513 nM and the IC50 (SK-MEL-24) was > 2000 nM. The IC50 (SW1417) was 736 nM, the IC50 (SW48) was 792 nM and the IC50 (SiHa) was 859 nM. For the same compound, the IC50 (T-24) was 370 nM, the IC50 (23132-87) was 683 nM and the IC50 (A 172) was 692 nM. For the same compound, the IC50 (A-431) was 925 nM, the IC50 (AGS) was 582 nM and the IC50 (ASPC1) was 664 nM. The IC50 (CAL-12T) was 433 nM, the IC50 (CAL-62) was 571 nM and the IC50 (TYK-nu) was 281 nM. The IC50 (U-251) was > 2000 nM.

With `Cc1ccc(-n2nc(C(C)(C)C)cc2NC(=O)Nc2ccc(OCCN3CCOCC3)c3ccccc23)cc1` [DORAMAPIMOD] the IC50 (CP50-MEL-B) was > 10000 nM, the IC50 (EFO-27) was > 10000 nM and the IC50 (FTC-133) was > 10000 nM. The IC50 (G-401) was > 10000 nM, the IC50 (HCC1806) was > 10000 nM and the IC50 (HCC 2998) was > 10000 nM. For the same compound, the IC50 (HCC70) was > 10000 nM, the IC50 (HT-1080) was > 10000 nM and the IC50 (HT-3) was > 10000 nM. The IC50 (HT55) was > 10000 nM, the IC50 (KP-N-YN) was 8200 nM and the IC50 (KYSE-70 cell line) was > 10000 nM. For the same compound, the IC50 (M059J) was > 10000 nM, the IC50 (MDA-MB-415) was > 10000 nM and the IC50 (MG-63) was > 10000 nM. The IC50 (MKN-45) was > 10000 nM, the IC50 (NCI-H1623) was > 10000 nM and the IC50 (NCI-H2052) was > 10000 nM. The IC50 (NCI-H2452) was > 10000 nM, the IC50 (NY) was > 10000 nM and the IC50 (PC-3) was > 10000 nM. For the same compound, the IC50 (RMG-I) was > 10000 nM, the IC50 (RPMI-7951) was > 10000 nM and the IC50 (SBC-5) was > 10000 nM. For the same compound, the IC50 (SK-MEL-24) was > 10000 nM, the IC50 (SW1417) was > 10000 nM and the IC50 (SW48) was > 10000 nM. For the same compound, the IC50 (SiHa) was > 10000 nM, the IC50 (T-24) was 8410 nM and the IC50 (23132-87) was > 10000 nM. For the same compound, the IC50 (A 172) was > 10000 nM, the IC50 (A-431) was > 10000 nM and the IC50 (AGS) was > 10000 nM. For the same compound, the IC50 (ASPC1) was > 10000 nM, the IC50 (CAL-12T) was > 10000 nM and the IC50 (CAL-62) was > 10000 nM. For the same compound, the IC50 (TYK-nu) was > 10000 nM and the IC50 (U-251) was > 10000 nM.

In the case of `Cc1ccc(C(=O)Nc2ccc(CN3CCN(C)CC3)c(C(F)(F)F)c2)cc1C#Cc1cnc2cccnn12` [PONATINIB], the IC50 (CP50-MEL-B) is reported as > 512 nM, the IC50 (DMS-153) is reported as > 512 nM and the IC50 (DMS-79) is reported as > 512 nM. For the same compound, the IC50 (Daudi) was 25.4 nM, the IC50 (EC-GI-10) was > 512 nM and the IC50 (EFO-27) was > 512 nM. For the same compound, the IC50 (FTC-133) was > 512 nM, the IC50 (G-401) was > 512 nM and the IC50 (HCC1806) was > 512 nM. For the same compound, the IC50 (HCC 2998) was > 512 nM, the IC50 (HCC70) was > 512 nM and the IC50 (HT-1080) was > 512 nM. The IC50 (HT-3) was > 512 nM, the IC50 (HT55) was > 512 nM and the IC50 (IM-9) was > 512 nM. For the same compound, the IC50 (KYSE-70 cell line) was > 512 nM, the IC50 (L-540) was > 512 nM and the IC50 (LP-1) was > 512 nM. The IC50 (M059J) was > 512 nM, the IC50 (MDA-MB-415) was > 512 nM and the IC50 (MG-63) was > 512 nM. The IC50 (MKN-45) was > 512 nM, the IC50 (NCI-H1436) was > 512 nM and the IC50 (NCI-H1623) was > 512 nM. For the same compound, the IC50 (NCI-H187) was > 512 nM, the IC50 (NCI-H2052) was 315 nM and the IC50 (NCI-H2452) was > 512 nM. For the same compound, the IC50 (NCI-H345) was > 512 nM, the IC50 (SNU-16) was > 512 nM and the IC50 (NY) was 193 nM. The IC50 (OPM-2) was 365 nM, the IC50 (PC-3) was > 512 nM and the IC50 (REH) was > 512 nM. The IC50 (RMG-I) was > 512 nM, the IC50 (RPMI-7951) was > 512 nM and the IC50 (RPMI 8402) was > 512 nM. The IC50 (SBC-5) was > 512 nM, the IC50 (SIG-M5) was 134 nM and the IC50 (SK-MEL-24) was 398 nM. The IC50 (SK-MM-2) was > 512 nM, the IC50 (SNU-C1) was > 512 nM and the IC50 (SUP-T1) was 99.8 nM. The IC50 (SW1417) was > 512 nM, the IC50 (SW48) was > 512 nM and the IC50 (SiHa) was > 512 nM. For the same compound, the IC50 (T-24) was > 512 nM, the IC50 (TALL-1) was > 512 nM and the IC50 (23132-87) was > 512 nM. For the same compound, the IC50 (A 172) was 296 nM, the IC50 (A-431) was > 512 nM and the IC50 (AGS) was > 512 nM. The IC50 (ASPC1) was > 512 nM, the IC50 (BC-3) was > 512 nM and the IC50 (CAL-12T) was > 512 nM. The IC50 (CAL-62) was > 512 nM, the IC50 (TYK-nu) was > 512 nM and the IC50 (U-251) was > 512 nM.
